# Test results taken from article PMC3823594, “Conformational Changes Underlying Pore Dilation in the Cytoplasmic Domain of Mammalian Inward Rectifier K^+ Channels” (PLoS ONE, 2013).
# Residue numbers refer to the chain shown, from its start.
# What was measured:
# Experiment in all cases: Two-electrode voltage clamp, ACh-dependent (m2R-dependent) K+ current activation
# Type in all cases: cell-based
# [1] = biological target: T1, Kir3.2 E236S (Mus musculus, UniProt P48542, E236S); conditions: Kir3.2 E236S with porcine m2R in Xenopus oocytes; −120 mV; Hill equation fit
# T1 sequence (P48542 19-425 E236S): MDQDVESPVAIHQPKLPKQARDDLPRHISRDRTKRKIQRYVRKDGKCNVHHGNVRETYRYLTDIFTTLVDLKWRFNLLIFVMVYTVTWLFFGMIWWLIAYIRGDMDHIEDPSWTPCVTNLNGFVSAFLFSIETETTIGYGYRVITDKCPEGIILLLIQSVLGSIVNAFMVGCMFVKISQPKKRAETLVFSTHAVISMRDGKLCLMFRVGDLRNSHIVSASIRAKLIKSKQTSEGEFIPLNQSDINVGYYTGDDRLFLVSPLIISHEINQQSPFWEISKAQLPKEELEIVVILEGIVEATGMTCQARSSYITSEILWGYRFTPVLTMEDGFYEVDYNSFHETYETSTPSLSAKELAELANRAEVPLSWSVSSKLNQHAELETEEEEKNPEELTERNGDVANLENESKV
# T1 sequence (P06199 1-466 partner): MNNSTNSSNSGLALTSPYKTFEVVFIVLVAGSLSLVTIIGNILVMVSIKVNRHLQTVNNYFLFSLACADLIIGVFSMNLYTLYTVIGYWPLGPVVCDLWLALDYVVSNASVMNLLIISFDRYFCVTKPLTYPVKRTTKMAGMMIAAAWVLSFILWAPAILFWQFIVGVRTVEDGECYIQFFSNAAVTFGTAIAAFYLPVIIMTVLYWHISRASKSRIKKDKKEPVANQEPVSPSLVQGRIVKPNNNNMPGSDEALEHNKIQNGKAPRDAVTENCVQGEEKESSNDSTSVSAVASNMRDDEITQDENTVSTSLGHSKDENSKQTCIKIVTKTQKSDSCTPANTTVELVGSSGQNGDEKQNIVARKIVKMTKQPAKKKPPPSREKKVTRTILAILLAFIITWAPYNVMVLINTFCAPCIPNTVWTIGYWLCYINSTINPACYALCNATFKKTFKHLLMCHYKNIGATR
# Excerpt: (§1) The mouse Kir3.2d isoform was subjected to functional analyses. The amino acid numbers correspond to the longest mouse Kir3.2 isoform. Point mutations were introduced using the QuikChange site-directed mutagenesis kit (Stratagene, La Jolla, CA), and the presence of the mutations was confirmed by direct DNA sequencing. The care of Xenopus laevis was in accordance with the guideline of the Institute of Experimental Animal Sciences, Osaka University. The protocol was approved by the Animal Experiment Committee of Osaka University. The frogs were deeply anesthetized by immersing in 0.2% tricaine methanesulfonate for 20 min at 18°C. A portion of an ovary lobe was surgically removed and incubated with collagenase to remove follicular cells. The oocytes were injected with the cRNAs of Kir3.2 and porcine m2-muscarinic receptor (m2R), and maintained in modified Barth’s solution at 18°C with daily solution changes. Electrophysiological studies were undertaken 48–72 h later at room temperature (20–25°C). Two-electrode voltage-clamp recordings from oocytes were performed using a GeneClamp 500B amplifier (Axon Instruments, Sunnyvale, CA). […] The bath solution contained 40 mM KCl, 50 mM NaCl, 3 mM MgCl2, 0.15 mM niflumic acid, and 5 mM HEPES-KOH (pH 7.4). The currents were recorded in the absence or presence of various concentrations of acetylcholine (ACh). Ba^2+ (3 mM) was added at the end of the recording to estimate the endogenous leak current. The data are expressed as mean values ± standard error of the mean. For the quantitative estimation of ACh-dependent current responses of the wild-type (WT) and mutant channels, the current amplitudes at the end of test pulses at each ACh concentration ([ACh]) were fitted using the following equation:
# (§2) I=min+[(max−min)/(1+(EC50/[ACh])^nH)]
# (§3) where I is the current amplitude measured at the [ACh], n H is the Hill coefficient, and EC50 is the concentration that induces 50% of the maximal response. […] The values of n H and EC50 were calculated using a non-linear least-squares best fit (SigmaPlot 9; Systat Software). Statistical analyses were performed by one-way ANOVA with post-hoc tests.
# [2] = biological target: T2, Kir3.2 E236D (Mus musculus, UniProt P48542, E236D); conditions: Kir3.2 E236D with porcine m2R in Xenopus oocytes; −120 mV; Hill equation fit
# T2 sequence (P48542 19-425 E236D): T1 sequence (P48542 19-425 E236S) with S218D
# T2 sequence (P06199 1-466 partner): T1 sequence (P06199 1-466 partner)
# Excerpt: as §1, §2, §3
# [3] = biological target: T3, Kir3.2 E236Q (Mus musculus, UniProt P48542, E236Q); conditions: Kir3.2 E236Q with porcine m2R in Xenopus oocytes; −120 mV; Hill equation fit
# T3 sequence (P48542 19-425 E236Q): T1 sequence (P48542 19-425 E236S) with S218Q
# T3 sequence (P06199 1-466 partner): T1 sequence (P06199 1-466 partner)
# Excerpt: as §1, §2, §3
smiles,measurement,setting,value
"CC(=O)OCC[N+](C)(C)C [ACh, acetylcholine]",Hill coefficient,[1],0.86 ± 0.07
same,Hill coefficient,[2],0.74 ± 0.07
same,Hill coefficient,[3],0.75 ± 0.02
